Peptide text beside a SMILES is read from it. * marks the point of attachment. Cbz = O=C(OCc1ccccc1)*
Tests used:
Mcl-1 = Mcl-1 protein level / degradation in mitotic arrest (western blot of synchronized cells); type: cell-based, human
Description: (§1) The viability of cancer cell lines, and MEFs in which genes encoding IAPs had been knocked out, was analysed by using the CellTiter-Glo Luminescent Cell Viability Assay® (Promega). Cells were treated in triplicate with anti-tubulin agents for the indicated times, using dimethylsulphoxide treatment as a control. The viability of BCL2-family-member-null MEFs was analysed by propidium iodide staining, as described previously (Chen, L. et al. (2005) Molecular cell 17:393-403), after treatment with anti-tubulin agents for 48 h. Cell synchronization was achieved by culture either in serum-free medium for 12-16 h or in medium containing 2 mM thymidine for 18-24 h, release from the thymidine block with three washes in PBS, followed by culture for 8-12 h in complete growth media (compositions are described in the Supplementary Information). Cells then underwent a second thymidine block for 16-20 h, three further washes in PBS and release into complete medium containing the indicated reagents. To block MCL1 degradation, […] MG132 was added as cells entered mitotic arrest, as assessed by visual inspection. See the Examples for full methods.
Western blotting was performed essentially as described (Wertz, I. E. et al. (2004) Science (New York, N.Y 303:1371-1374). In brief, cells were lysed in corrected FLAG elution buffer (CFEB) (19.17 mM Tris (pH 7.5), 916.7 μM MgCl2, 92.5 mM NaCl and 0.1% Triton X-100) with protease and phosphatase inhibitors; in some cases 6 M urea was added. Cleared lysates were quantitated and equal amounts of proteins were reduced, alkylated, separated by SDS-PAGE, and transferred onto PVDF membranes (Invitrogen) following standard procedures. Western blotting was performed as recommended by the respective antibody manufacturers. Patient tissue and xenograft samples were lysed in 5× volume of CFEB with protease inhibitors using Fast prep 24 (MP Biologicals). Tissue lysates were cleared and 40 μg total protein was prepared for western blotting analysis as described above. Immunoprecipitations were performed with the indicated antibodies as described (Willis, S. N. et al. (2007) Science (New York, N.Y 315:856-859; Wertz, I. E. et al. (2004) Science (New York, N.Y 303:1371-1374). PP2A activity was performed on PP2A or Mcl-1 immunoprecipitates as recommended by the manufacturer (Upstate)

[1] = system: murine embryonic fibroblasts (MEFs); assay: Viability of BCL2-family-member-null MEFs by propidium iodide staining after anti-tubulin agents; type: cell-based; details: treated 48 hours
Description: as §1

Mcl-1 S121 = assay: In vitro kinase reactions: percent phosphorylation of full-length recombinant Mcl-1 at S121; type: biochemical, human; details: for Percent phosphorylation S121, AVE: average of INJ1 and INJ2; for Percent phosphorylation S121, INJ1: sample injection 1; for Percent phosphorylation S121, INJ2: sample injection 2
Description: (§2) To determine the suitability of residues in Mcl-1 as kinase substrates, 10 μM of Mcl-1 was incubated with selected kinase at enzyme concentrations between 25 and 100 nM. For these reactions the Mcl-1 was dialyzed into 20 mM Phosphate, 50 mM Tris pH 7.5 150 mM NaCl, 5 mM DTT and 0.5% CHAPS. The protein solution was further supplemented with MgCl2 to 10 mM and ATP to 1 mM prior to addition of kinase. Purified recombinant kinases were purchased from Invitrogen Co. (Carlsbad, Calif.).
(§3) 10 μl of each of the Mcl-1 kinase reactions (100 pmol) were loaded onto a 4-12% Bis-Tris gel for separation by SDS-PAGE after reduction. Mcl-1 bands were excised from the gel, dehydrated (50% acetonitrile in 50 mM ammonium bicarbonate then 100% acetonitrile washes), and incubated with 0.2 μg trypsin overnight at 37° C.
(§4) Samples were injected in duplicate via autosampler onto a nanoAcquity® UPLC (Waters, Milford, Mass.) and analyzed on-line via nanospray ionization into an LTQ-Orbitrap® mass spectrometer at a concentration of 300 fmol synthetic peptide mix per injection. Areas were integrated for the isotopic and kinase phosphorylated peptides, and compared to their non-phosphorylated peptide counterparts to obtain percent phosphorylation values.

Mcl-1 T163 = assay: In vitro kinase reactions: percent phosphorylation of full-length recombinant Mcl-1 at T163; type: biochemical, human; details: single kinase reactions; for Percent phosphorylation T163, AVE: average of INJ1 and INJ2; for Percent phosphorylation T163, INJ1: sample injection 1; for Percent phosphorylation T163, INJ2: sample injection 2
Description: as §2, §3, §4

Mcl-1 S159/T163 = assay: In vitro kinase reactions: percent phosphorylation of full-length recombinant Mcl-1 at S159+T163; type: biochemical, human; details: for Percent phosphorylation S159/T163, AVE: average; for Percent phosphorylation S159/T163, INJ1: sample injection 1; for Percent phosphorylation S159/T163, INJ2: sample injection 2
Description: as §2, §3, §4

Mcl-1 S159 = assay: In vitro kinase reactions: percent phosphorylation of full-length recombinant Mcl-1 at S159 alone; type: biochemical, human; details: % phos on S159 alone; for Percent phosphorylation S159, AVE: average; for Percent phosphorylation S159, INJ1: sample injection 1; for Percent phosphorylation S159, INJ2: sample injection 2
Description: as §2, §3
as §4, with “values. For phosphorylation analysis of T92, no synthetic peptide was available so peak areas of the phosphorylated peptide covering residues 76-95 was divided by the total occurrence of peptide 76-95 in both phosphorylated and non-phosphorylated forms.” for “values.”

Mcl-1 T92 = assay: In vitro kinase reactions: percent phosphorylation of full-length recombinant Mcl-1 at T92; type: biochemical, human; details: single kinase reactions, peak areas of 0 and 1P, triple charged state; for Percent phosphorylation T92, AVE: average; for Percent phosphorylation T92, INJ1: sample injection 1; for Percent phosphorylation T92, INJ2: sample injection 2
Description: as §2, §3, §4

[2] = % phos on S159+T163, CDK1 + kinase panel reactions
[3] = % phos on S159+T163, single kinase reactions

Row | Molecule | Percent phosphorylation S121, AVE (Mcl-1 S121; CDK1 + kinase panel reactions) | Percent phosphorylation S121, INJ1 (Mcl-1 S121; CDK1 + kinase panel reactions) | Percent phosphorylation S121, INJ2 (Mcl-1 S121; CDK1 + kinase panel reactions) | Percent phosphorylation S121, AVE (Mcl-1 S121; single kinase reactions) | Percent phosphorylation S121, INJ1 (Mcl-1 S121; single kinase reactions) | Percent phosphorylation S121, INJ2 (Mcl-1 S121; single kinase reactions) | Percent phosphorylation T163, AVE (Mcl-1 T163) | Percent phosphorylation T163, INJ1 (Mcl-1 T163) | Percent phosphorylation T163, INJ2 (Mcl-1 T163) | Percent phosphorylation S159/T163, AVE (Mcl-1 S159/T163; [2]) | Percent phosphorylation S159/T163, INJ1 (Mcl-1 S159/T163; [2]) | Percent phosphorylation S159/T163, INJ2 (Mcl-1 S159/T163; [2]) | Percent phosphorylation S159/T163, AVE (Mcl-1 S159/T163; [3]) | Percent phosphorylation S159/T163, INJ1 (Mcl-1 S159/T163; [3]) | Percent phosphorylation S159/T163, INJ2 (Mcl-1 S159/T163; [3]) | Percent phosphorylation T92, AVE (Mcl-1 T92) | Percent phosphorylation T92, INJ1 (Mcl-1 T92) | Percent phosphorylation T92, INJ2 (Mcl-1 T92) | also measured
1 | Nc1[nH]nc2nnc(-c3c(-c4ccccc4)nn4ccccc34)cc12 [FR180204] | – | – | – | – | – | – | – | – | – | – | – | – | – | – | – | – | – | – | Mcl-1 degradation in mitotic arrest (Mcl-1; HeLa released into paclitaxel, CGP74514A 2 μM, FR180204 2 μM, SP600125 25 μM, SB203580 2 μM added on entry into mitotic arrest): but not ERK, attenuate Mcl-1 degradation
2 | CC(C)C[C@@H](C=O)NC(=O)[C@H](CC(C)C)NC(=O)[C@H](CC(C)C)NC(=O)OCc1ccccc1 [MG132] (Cbz-Leu-Leu-Leu-aldehyde) | – | – | – | – | – | – | – | – | – | – | – | – | – | – | – | – | – | – | Mcl-1 degradation in mitotic arrest (Mcl-1; HeLa, HCT116 cells, MG132 added as cells entered mitotic arrest): blocked Mcl-1 degradation
3 | COC(=O)Nc1nc2ccc(C(=O)c3cccs3)cc2[nH]1 [nocodazole] | – | – | – | – | – | – | – | – | – | – | – | – | – | – | – | – | – | – | killing (cell viability) ([1]; BAX−/−/BAK−/− MEFs): resistant; killing (cell viability) ([1]; wild-type MEFs): significantly more sensitive; Mcl-1 protein level in mitotic arrest (Mcl-1; synchronized cells (HeLa) released into the agent): declined markedly
4 | CSNK2: purified recombinant kinase purchased from Invitrogen | 21.48% | 20.17% | 22.78% | 10.28% | 10.20% | 10.36% | 0.00% | 0.00% | 0.00% | 7.70% | 8.30% | 7.09% | 3.80% | 5.61% | 1.99% | 0.10% | 0.09% | 0.10% | Percent phosphorylation S159, AVE (Mcl-1 S159; CDK1 + kinase panel reactions): 17.13%; Percent phosphorylation S159, INJ1 (Mcl-1 S159; CDK1 + kinase panel reactions): 16.35%; Percent phosphorylation S159, INJ2 (Mcl-1 S159; CDK1 + kinase panel reactions): 17.90%; Percent phosphorylation S159, AVE (Mcl-1 S159; single kinase reactions): 39.13%; Percent phosphorylation S159, INJ1 (Mcl-1 S159; single kinase reactions): 40.30%; Percent phosphorylation S159, INJ2 (Mcl-1 S159; single kinase reactions): 37.95%
5 | MAPK9: purified recombinant kinase purchased from Invitrogen | 11.82% | 11.75% | 11.89% | 6.02% | 6.46% | 5.57% | 48.52% | 48.92% | 48.11% | 0.61% | 0.73% | 0.49% | 4.82% | 5.41% | 4.22% | 2.02% | 2.30% | 1.74% | –
6 | MAPK14: purified recombinant kinase purchased from Invitrogen | 20.58% | 21.26% | 19.90% | 5.26% | 7.22% | 3.29% | 76.20% | 79.44% | 72.96% | 2.14% | 1.84% | 2.43% | 4.35% | 1.12% | 7.57% | 8.94% | 9.67% | 8.20% | –
